One assay deals with human ACC2 (Homo sapiens (Human), UniProt O00763). The format is biochemical. The settings on record: for IC50: human ACC2, read-out: IC50 (hACC2).
A further assay deals with rACC2 (Rattus norvegicus, UniProt O70151). Nature of the assay: Enzymatic assay of ACC inhibitors, rat ACC2. In kind it is biochemical. The method, then: (§1) The enzymatic activity of ACC and its inhibition by test substances were determined by a luminometric assay. The reaction mixture contained 50 mM tris acetate (Merck, #1.08382.1000), pH 7.5, 250 μM acetyl coenzyme A (Sigma, #A2181),16 mM NaHCO3 (Merck, #1.06329.0500), 0.9 mg/ml bovine serum albumin (Sigma, #A8806), 25 μM ATP (Sigma, #A7699), 1.1 μM β-mercaptoethanol (Roth, #4227,1), 4.3 mM magnesium acetate ((Merck, #1.05819.0250), 10 mM sodium citrate (Merck, #1.06448.0500) and 200-400 ng of the ACC preparations. The mixture also contained a test compound. The test compounds were each dissolved in 10 mM DMSO and were assayed at final concentrations of 0 μM, 0.01 μM, 0.03 μM, 0.1 μM, 0.3 μM, 1 μM, 3 μM, 10 μM, 30 μM and 100 μM. The final concentration of the DMSO in the assay was 0.1% (v/v). The reaction was started by adding ACC and was carried out at 37° C. for 90 min. The reaction was then stopped by adding 150 μl of 0.5 M tris acetate. 10 μl of the mixture were removed and mixed with 90 μl of ATP monitoring reagent (Cambrex, #LT27-002). After incubation for 10 min, the luminescence was measured in a luminometer (Tecan Genios Pro).
rACC2, sequence (O70151 1-2456): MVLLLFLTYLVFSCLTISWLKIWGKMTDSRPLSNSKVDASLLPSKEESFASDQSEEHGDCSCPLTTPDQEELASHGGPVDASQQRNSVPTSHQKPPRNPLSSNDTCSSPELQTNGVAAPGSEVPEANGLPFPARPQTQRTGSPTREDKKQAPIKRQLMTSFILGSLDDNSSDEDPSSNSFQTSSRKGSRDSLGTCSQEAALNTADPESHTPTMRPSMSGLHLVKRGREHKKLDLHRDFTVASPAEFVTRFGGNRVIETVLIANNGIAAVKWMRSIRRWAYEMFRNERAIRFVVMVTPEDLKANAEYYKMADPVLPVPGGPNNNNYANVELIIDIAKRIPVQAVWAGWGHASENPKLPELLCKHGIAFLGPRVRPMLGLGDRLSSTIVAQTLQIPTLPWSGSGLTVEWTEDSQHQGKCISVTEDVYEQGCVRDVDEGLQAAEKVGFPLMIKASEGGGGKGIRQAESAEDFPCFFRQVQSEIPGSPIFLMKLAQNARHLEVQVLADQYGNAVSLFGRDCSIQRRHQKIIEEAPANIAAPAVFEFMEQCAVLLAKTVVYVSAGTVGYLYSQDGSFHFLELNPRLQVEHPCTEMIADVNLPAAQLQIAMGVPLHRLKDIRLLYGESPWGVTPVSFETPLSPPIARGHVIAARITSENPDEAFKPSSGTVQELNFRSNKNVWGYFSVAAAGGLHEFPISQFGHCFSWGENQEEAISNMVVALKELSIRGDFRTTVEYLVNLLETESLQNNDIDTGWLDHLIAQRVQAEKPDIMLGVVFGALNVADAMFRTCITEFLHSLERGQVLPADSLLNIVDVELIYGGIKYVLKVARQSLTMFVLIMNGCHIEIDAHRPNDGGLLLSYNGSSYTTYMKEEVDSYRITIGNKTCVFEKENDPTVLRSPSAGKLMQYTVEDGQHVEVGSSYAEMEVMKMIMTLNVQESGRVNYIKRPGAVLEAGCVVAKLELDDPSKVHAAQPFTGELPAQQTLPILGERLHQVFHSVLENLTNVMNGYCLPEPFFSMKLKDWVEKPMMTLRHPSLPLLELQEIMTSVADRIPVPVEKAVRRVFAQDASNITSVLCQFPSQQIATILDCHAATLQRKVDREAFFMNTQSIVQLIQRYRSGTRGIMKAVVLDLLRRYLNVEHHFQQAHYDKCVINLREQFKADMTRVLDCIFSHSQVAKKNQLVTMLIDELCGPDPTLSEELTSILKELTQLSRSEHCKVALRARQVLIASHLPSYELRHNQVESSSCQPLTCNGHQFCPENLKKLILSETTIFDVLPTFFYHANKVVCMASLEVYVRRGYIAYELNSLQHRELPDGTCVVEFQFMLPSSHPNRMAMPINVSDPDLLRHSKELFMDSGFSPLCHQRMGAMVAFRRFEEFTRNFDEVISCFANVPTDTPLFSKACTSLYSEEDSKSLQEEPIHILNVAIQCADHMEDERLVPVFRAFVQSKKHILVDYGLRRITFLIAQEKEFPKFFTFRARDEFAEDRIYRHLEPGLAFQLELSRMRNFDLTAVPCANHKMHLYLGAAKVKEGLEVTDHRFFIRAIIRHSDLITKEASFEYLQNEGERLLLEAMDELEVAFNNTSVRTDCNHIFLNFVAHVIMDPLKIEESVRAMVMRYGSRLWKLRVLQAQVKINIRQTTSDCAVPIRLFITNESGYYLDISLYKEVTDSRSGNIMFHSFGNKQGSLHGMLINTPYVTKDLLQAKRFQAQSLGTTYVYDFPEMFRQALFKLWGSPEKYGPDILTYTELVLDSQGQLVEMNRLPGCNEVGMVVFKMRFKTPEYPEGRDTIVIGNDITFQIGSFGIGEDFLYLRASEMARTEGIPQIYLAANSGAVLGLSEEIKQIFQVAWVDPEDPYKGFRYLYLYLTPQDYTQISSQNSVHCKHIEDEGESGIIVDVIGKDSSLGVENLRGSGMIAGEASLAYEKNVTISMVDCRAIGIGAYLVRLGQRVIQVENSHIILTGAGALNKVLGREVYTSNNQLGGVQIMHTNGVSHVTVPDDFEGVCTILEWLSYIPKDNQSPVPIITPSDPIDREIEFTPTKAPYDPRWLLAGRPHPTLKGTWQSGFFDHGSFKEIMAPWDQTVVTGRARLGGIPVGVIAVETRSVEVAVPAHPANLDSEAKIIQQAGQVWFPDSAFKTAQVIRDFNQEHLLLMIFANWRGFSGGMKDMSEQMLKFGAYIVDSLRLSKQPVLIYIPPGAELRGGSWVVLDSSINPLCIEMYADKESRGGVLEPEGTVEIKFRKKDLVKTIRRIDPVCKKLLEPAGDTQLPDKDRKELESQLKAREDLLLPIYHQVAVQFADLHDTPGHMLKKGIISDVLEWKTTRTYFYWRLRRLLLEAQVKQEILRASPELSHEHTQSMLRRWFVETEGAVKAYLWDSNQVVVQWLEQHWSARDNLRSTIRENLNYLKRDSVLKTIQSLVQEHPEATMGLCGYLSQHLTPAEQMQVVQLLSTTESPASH
The crude luminescence data were transferred into a Microsoft Excel file. The luminescence measured in the absence of ACC in the reaction mixture was defined as 100%. The value in the presence of ACC with 0 μM test compound was set at 0%. Dose-effect plots were calculated with the XL.Fit program as specified by the producer (IDBS). The IC50 of a test substance was the concentration of the test compound at which a luminescence of 50% was measured.

Another assay deals with rACC1 (Rattus norvegicus (Rat), UniProt P11497). In words: Enzymatic assay of ACC inhibitors, rat ACC1. In kind it is biochemical. The method, then:
as §1, with “10 μl of the mixture were removed and mixed with 90 μl of ATP monitoring reagent (Cambrex, #LT27-002).” left out
The crude luminescence data were transferred into a Microsoft Excel file. The luminescence measured in the absence of ACC in the reaction mixture was defined as 100%. […] Dose-effect plots were calculated with the XL.Fit program as specified by the producer (IDBS). […]

The subject of assay [1] is C2C12 mouse muscle cell line. Nature of the assay: Palmitate oxidation in a mouse muscle cell line (C2C12). The format is cell-based. The settings on record: 10 μM. The method, then:
In another pharmacological test both compounds were tested for palmitate oxidation in a mouse muscle cell line (C2C12) which is also mediated by ACC inhibition.

Another assay has as its target human ACC1 (Homo sapiens (Human), UniProt Q13085).
The mark [2] stands for this setting: relative to comparative example 59.
The mark [3] stands for this setting: relative to comparative example 59, respective rat ACC isoforms.

Where two headings read alike, the source gives them in different places.

human ACC2, sequence (O00763 151-2458): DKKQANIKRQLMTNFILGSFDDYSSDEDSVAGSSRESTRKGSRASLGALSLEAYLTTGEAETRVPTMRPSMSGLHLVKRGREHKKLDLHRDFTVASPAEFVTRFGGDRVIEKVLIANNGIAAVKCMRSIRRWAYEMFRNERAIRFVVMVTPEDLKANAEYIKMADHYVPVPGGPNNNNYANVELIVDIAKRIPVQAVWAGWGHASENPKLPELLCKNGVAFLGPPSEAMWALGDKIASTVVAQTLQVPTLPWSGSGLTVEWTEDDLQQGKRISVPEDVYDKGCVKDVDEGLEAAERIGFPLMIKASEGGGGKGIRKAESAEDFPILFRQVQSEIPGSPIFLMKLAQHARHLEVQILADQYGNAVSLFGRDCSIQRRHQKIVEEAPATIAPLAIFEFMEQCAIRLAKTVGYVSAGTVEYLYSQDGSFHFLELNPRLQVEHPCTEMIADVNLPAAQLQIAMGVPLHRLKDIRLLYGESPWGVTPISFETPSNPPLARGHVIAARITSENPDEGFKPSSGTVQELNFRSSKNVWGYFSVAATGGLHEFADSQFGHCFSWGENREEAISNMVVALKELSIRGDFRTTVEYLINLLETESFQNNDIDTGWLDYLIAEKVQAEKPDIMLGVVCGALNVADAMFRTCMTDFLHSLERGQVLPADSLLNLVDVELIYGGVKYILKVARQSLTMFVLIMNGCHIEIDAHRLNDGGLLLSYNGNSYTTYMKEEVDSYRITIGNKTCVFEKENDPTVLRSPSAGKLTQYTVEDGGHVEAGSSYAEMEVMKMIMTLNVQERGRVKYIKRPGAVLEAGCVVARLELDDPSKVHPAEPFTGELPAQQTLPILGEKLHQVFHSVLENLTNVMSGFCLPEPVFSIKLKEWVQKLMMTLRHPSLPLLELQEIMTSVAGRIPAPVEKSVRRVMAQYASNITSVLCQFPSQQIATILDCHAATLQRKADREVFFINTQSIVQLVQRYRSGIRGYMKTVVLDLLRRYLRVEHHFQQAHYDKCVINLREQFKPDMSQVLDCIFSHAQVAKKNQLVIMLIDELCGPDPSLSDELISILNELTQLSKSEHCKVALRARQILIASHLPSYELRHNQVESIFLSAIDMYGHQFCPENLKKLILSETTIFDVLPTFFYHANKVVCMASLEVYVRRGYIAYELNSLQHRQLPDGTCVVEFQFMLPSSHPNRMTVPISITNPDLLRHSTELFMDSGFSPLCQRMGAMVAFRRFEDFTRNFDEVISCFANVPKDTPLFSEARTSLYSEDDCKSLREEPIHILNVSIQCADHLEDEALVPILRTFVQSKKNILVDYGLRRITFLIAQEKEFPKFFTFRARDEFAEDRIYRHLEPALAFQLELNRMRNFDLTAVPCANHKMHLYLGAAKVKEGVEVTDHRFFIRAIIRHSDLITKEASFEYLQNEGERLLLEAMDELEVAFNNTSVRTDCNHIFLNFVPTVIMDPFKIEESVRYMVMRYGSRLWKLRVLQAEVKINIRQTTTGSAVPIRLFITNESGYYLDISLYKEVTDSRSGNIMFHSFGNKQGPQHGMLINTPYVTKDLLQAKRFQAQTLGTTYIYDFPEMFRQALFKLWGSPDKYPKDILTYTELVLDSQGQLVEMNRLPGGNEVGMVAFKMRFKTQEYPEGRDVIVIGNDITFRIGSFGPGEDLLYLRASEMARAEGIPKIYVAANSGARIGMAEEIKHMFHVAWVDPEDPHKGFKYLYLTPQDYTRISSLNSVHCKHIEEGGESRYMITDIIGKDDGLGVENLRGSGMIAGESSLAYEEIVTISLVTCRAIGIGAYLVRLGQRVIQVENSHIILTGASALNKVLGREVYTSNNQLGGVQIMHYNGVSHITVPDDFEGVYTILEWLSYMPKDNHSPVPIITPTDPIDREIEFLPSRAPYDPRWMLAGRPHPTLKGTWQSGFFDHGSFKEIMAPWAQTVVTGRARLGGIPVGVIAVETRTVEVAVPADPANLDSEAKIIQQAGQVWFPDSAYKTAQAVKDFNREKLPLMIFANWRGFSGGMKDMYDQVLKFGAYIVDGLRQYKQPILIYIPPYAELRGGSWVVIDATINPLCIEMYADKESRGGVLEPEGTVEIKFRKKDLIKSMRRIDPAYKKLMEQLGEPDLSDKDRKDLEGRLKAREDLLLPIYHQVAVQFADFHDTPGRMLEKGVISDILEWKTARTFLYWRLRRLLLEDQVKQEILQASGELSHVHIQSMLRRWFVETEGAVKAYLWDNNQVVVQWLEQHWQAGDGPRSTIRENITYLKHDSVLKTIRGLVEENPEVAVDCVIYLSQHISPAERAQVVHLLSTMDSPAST

For `CC(=O)NC(C)CCc1ccc(Oc2ccc(OC3CCCC3)cn2)cc1` (centres unmarked) [Example 2, N-{3-[4-(5-Cyclopentyloxypyridin-2-yloxy)phenyl]-1-methylpropyl}acetamide], on human ACC2, the concentration for half-maximal inhibition (IC50) is 0.14 µM.
The same measure, in the same setting: with `CC(=O)NCCC[C@H]1OC[C@H](Oc2ccc(OCc3ccccc3)cc2)CO1` [Example 4, trans-N-{3-[5-(4-benzyloxyphenoxy)-[1,3]dioxan-2-yl]propyl}acetamide] the figure was 0.4 µM; with `CC(=O)NCCC[C@H]1OC[C@H](Oc2ccc(OC3CCCC3)cc2)CO1` [Example 6, trans-N-{3-[5-(4-Cyclopentyloxyphenoxy)-[1,3]dioxan-2-yl]propyl}acetamide], 0.2 µM.
For `CC(=O)NC(C)CCc1ccc(Oc2ccc(OCc3ccccc3)cn2)cc1` (centres unmarked) [Example 9, N-{3-[4-(5-Benzyloxypyridin-2-yloxy)phenyl]-1-methylpropyl}acetamide], on human ACC2, the IC50 turned out to be 0.14 µM.
As for `CCCOc1ccc(Oc2ccc(CCC(C)NC(C)=O)cc2)nc1` (centres unmarked) [Example 11, N-{1-Methyl-3-[4-(5-propoxypyridin-2-yloxy)phenyl]propyl}acetamide], on human ACC2, the half-inhibitory concentration (IC50) is 0.14 µM.
Regarding `CC(=O)NC(C)CCc1ccc(Oc2ccc(OCC3CCC3)cn2)cc1` (centres unmarked) [Example 12, N-{3-[4-(5-Cyclobutylmethoxypyridin-2-yloxy)phenyl]-1-methylpropyl}acetamide], the IC50 at human ACC2 was 0.05 µM.
The same measure, in the same setting: with `CC(=O)NCCC[C@H]1OC[C@H](Oc2ccc(OCc3ccccc3)cn2)CO1` [Example 17, trans-N-{3-[5-(5-benzyloxypyridin-2-yloxy)-[1,3]dioxan-2-yl]propyl}acetamide] the figure was 0.05 µM; with `CC(=O)N[C@@H](C)CCc1ccc(Oc2ccc(OCc3ccccc3)cn2)cc1` [Example 19, N—{(S)-3-[4-(5-Benzyloxypyridin-2-yloxy)phenyl]-1-methylpropyl}acetamide], 0.1 µM.
The same measure, in the same setting: with `CC(=O)NC(C)CCc1ccc(Oc2ccc(OC3CCOC3)cn2)cc1` (centres unmarked) [Example 20, N-(1-Methyl-3-{4-[5-(tetrahydrofuran-3-yloxy)pyridin-2-yloxy]phenyl}propyl)acetamide] the figure was 3.6 µM.
The same measure, in the same setting: with `CC(=O)NCCC[C@H]1OC[C@H](Oc2ccc(OC(C)C)cn2)CO1` [Example 23, trans-N-{3-[5-(5-isopropoxypyridin-2-yloxy)-[1,3]dioxan-2-yl]-propyl}acetamide] the figure was 2 µM; with `CC(=O)NCCC[C@H]1OC[C@H](Oc2ncc(OC(C)C)cc2Cl)CO1` [Example 25, trans-N-{3-[5-(3-chloro-5-isopropoxypyridin-2-yloxy)-[1,3]dioxan-2-yl]propyl}acetamide], 0.38 µM; with `CC(=O)NC(C)COc1ccc(Oc2ccc(OC(C)C)cn2)cc1` (centres unmarked) [Example 27, N-{2-[4-(5-Isopropoxypyridin-2-yloxy)phenoxy]-1-methylethyl}acetamide], 1.3 µM.
Turning to `CC(=O)N[C@@H](C)COc1ccc(Oc2ccc(OC(C)C)cn2)cc1` [Example 29, N—{(S)-2-[4-(5-Isopropoxypyridin-2-yloxy)phenoxy]-1-methylethyl}acetamide], on human ACC2, the half-inhibitory concentration (IC50) came to 1.2 µM.
`CC(=O)NC(C)CCc1ccc(Oc2ncc(OC(C)C)cc2Cl)cc1` (centres unmarked) [Example 32, N-{3-[4-(3-Chloro-5-isopropoxypyridin-2-yloxy)phenyl]-1-methylpropyl}acetamide]: the IC50 at human ACC2 amounted to 1.3 µM.
For `CC(=O)NC(C)CCc1ccc(Oc2ccc(OC(C)C)nc2)cc1` (centres unmarked) [Example 33, N-{3-[4-(6-Isopropoxypyridin-3-yloxy)phenyl]-1-methylpropyl}acetamide], on human ACC2, the IC50 was 0.06 µM.
With `CC(=O)N[C@@H](C)CCc1ccc(Oc2ccc(OC(C)C)nc2)cc1` [Example 35, N—{(S)-3-[4-(6-Isopropoxypyridin-3-yloxy)phenyl]-1-methylpropyl}acetamide], the IC50 was 0.03 µM at human ACC2; 0.4 µM at rACC2 (rat ACC2, read-out: IC50 rACC2); 0.17 µM against rACC1 (rat ACC1); 0.19 µM on human ACC1 (read-out: IC50 hACC (human ACC1), human ACC1, table row printed as hACC). The “times higher potency than example 59, human ACC2” value at human ACC2 (setting [2]) is reported as “approx. 5 times”. Besides, the “times higher potency than example 59, rat ACC2” value on rACC2 (setting [3]) was greater than 3 times. At rACC1 (setting [3]), the “times higher potency than example 59, rat ACC1” value is recorded as greater than 3 times. In assay [1], the “stimulation of cellular fat (palmitate) oxidation” value is listed as 1.7 fold. The “times higher potency than example 59, human ACC1” value at human ACC1 (setting [2]) is roughly 40 times.
Consider `CC(=O)NC(C)CCc1ccc(Oc2ccc(OCc3ccccc3)nc2)cc1` (centres unmarked) [Example 36, N-{3-[4-(6-Benzyloxypyridin-3-yloxy)phenyl]-1-methylpropyl}acetamide], for which the IC50 on human ACC2 stood at 0.07 µM.
`CC(=O)NC(C)CCc1cnc(Oc2ccc(OCc3ccccc3)nc2)nc1` (centres unmarked) [Example 37, N-{3-[2-(6-Benzyloxypyridin-3-yloxy)pyrimidin-5-yl]-1-methylpropyl}acetamide]: at human ACC2, the IC50 stood at 5.9 µM.
Same read-out and setting: with `CC(=O)N[C@@H](C)COc1ccc(Oc2ccc(OC(C)C)cc2)nc1` [Example 39, N—{(S)-2-[6-(4-Isopropoxyphenoxy)pyridin-3-yloxy]-1-methylethyl}acetamide] the figure was 2.5 µM.
Same read-out and setting: to `CC(=O)NC(C)CCc1ccc(Oc2cnc(OC(C)C)nc2)cc1` (centres unmarked) [Example 40, N-{3-[4-(2-Isopropoxypyrimidin-5-yloxy)phenyl]-1-methylpropyl}acetamide] belongs 0.74 µM; to `CC(CCc1ccc(Oc2ccc(OC(C)C)nc2)cc1)NC(=O)C1CC1` (centres unmarked) [Example 44, N-{3-[4-(6-Isopropoxypyridin-3-yloxy)phenyl]-1-methylpropyl}cyclopropanecarboxamide], 0.09 µM; to `CC(CCc1ccc(Oc2ccc(OC(C)C)nc2)cc1)NC=O` (centres unmarked) [Example 45, N-{3-[4-(6-Isopropoxypyridin-3-yloxy)phenyl]-1-methylpropyl}formamide], 0.67 µM.
With `COC(=O)NC(C)CCc1ccc(Oc2ccc(OC(C)C)nc2)cc1` (centres unmarked) [Example 46, Methyl {3-[4-(6-isopropoxypyridin-3-yloxy)phenyl]-1-methylpropyl}carbamate], the IC50 at human ACC2 is 0.21 µM.
Take `CC(CCc1ccc(Oc2ccc(OC(C)C)nc2)cc1)NC(N)=O` (centres unmarked) [Example 47, {3-[4-(6-Isopropoxypyridin-3-yloxy)phenyl]-1-methylpropyl}urea]: the IC50 at human ACC2 came out at 0.15 µM.
The same measure, in the same setting: with `CC(CCc1ccc(Oc2ccc(OC(C)C)nc2)cc1)NC(=O)CO` (centres unmarked) [Example 48, 2-Hydroxy-N-{3-[4-(6-isopropoxypyridin-3-yloxy)phenyl]-1-methylpropyl}acetamide] the figure was 0.9 µM.
`CC(=O)NC(C)CCc1ccc(Oc2cnc(OC(C)C)cn2)cc1` (centres unmarked) [Example 49, N-{3-[4-(5-Isopropoxypyrazin-2-yloxy)phenyl]-1-methylpropyl}acetamide]: the IC50 at human ACC2 is 1.2 µM.
`CC(=O)NC(C)CCc1ccc(Oc2ccc(OCC3CC3)nc2)cc1` (centres unmarked) [Example 50, N-{3-[4-(6-Cyclopropylmethoxypyridin-3-yloxy)phenyl]-1-methylpropyl}acetamide]: the IC50 at human ACC2 amounted to 0.17 µM.
On the same count and under the same terms, to `CC(=O)NC(C)CCC1CCC(Oc2ccc(OC(C)C)nc2)CC1` (centres unmarked) [Example 52, N-{3-[4-(6-Isopropoxypyridin-3-yloxy)cyclohexyl]-1-methylpropyl}acetamide] belongs 0.08 µM.
As for `CC(=O)N[C@@H](C)COc1ccc(Oc2ccc(OC(C)C)cc2)cc1` [Example 59, N—{(S)-2-[4-(4-Isopropoxyphenoxy)phenoxy]-1-methylethyl}acetamide, reference compound], inhibition against rACC2 was half-maximal at 1.5 µM (IC50). In addition, the “stimulation of cellular fat (palmitate) oxidation” value in assay [1] is on record as “no effect”.

(Values after US8470841B2, “Heterocyclic compounds, processes for their preparation, medicaments comprising these compounds, and the use thereof” (Sanofi, priority 2008, dated 2013).)
